Results from patent US6362207B1, “Methods of treating viral infections with benzimidazoles” (priority 1995, dated 2002).
Like-named read-outs stand apart in the source and are kept apart here.

What was measured:
rhinovirus = assay: In vitro rhinovirus model; assay type: cell-based
HIV = assay: microbe, parasite or virus in culture; assay type: cell-based; settings: 1 μg/ml
[1] = test system: HIV-1 in U1 cells (promonocytic, from U937); assay: Additional chronic HIV studies, monocytes; assay type: cell-based; settings: chronic HIV model
Procedure: Chronic HIV-1 infected cells U1 were derived from an acute HIV-1 infection of the promonocytic cell line, U937. The chronic HIV-1 infected cells, ACH-2 were derived from an acute HIV-1 infection of the T cell line, A3.01.
These cells were cultured in medium and the phorbol ester, PMA. PMA causes the cells (both U1 and ACH-2) to be activated and not divide but it also causes the U-1 cells to differentiate. […] Cell viability was measured when these cell lines were treated with the test compound.
Both cell lines constituitively produce a small amount of HIV-1. ACH-2 cell lines tend to produce more HIV-1 than U1 cells as shown by p24 ELISA. When either cell line is cultured in the presence of PMA there is an increase in the quantity of HIV-1 produced as measured by the p24 antigen ELISA.
In addition, the number of […] positive HIV mRNA expressing cells per microscopic field is measured. Comparisons can be made from these numbers since the same number of cells were adhered to the glass slides for each drug concentration 10×10^6 cells/ml).
These cells were treated with test samples. […] The positive control was interferon which suppressed HIV monocytes replication by 80%.

HT29 colon tumor cells = assay: MTT cell viability test, colon tumor cells; assay type: cell-based, human; settings: MTT, 5 day incubation
MX1 breast cells = assay: MTT cell viability test, breast tumor cells; assay type: cell-based, human; settings: 5 day incubation
A549 lung tumor cells = assay: MTT cell viability test, lung tumor cells; assay type: cell-based, human; settings: MTT, 5 day incubation
[2] = assay type: in vivo
Text: Additional in vivo cancer studies are presented in a tabular form below. The data is presented in the following format—dose regimen in parenthesis, dosage in mg/kg: tumor growth suppression (tg supp.), toxic deaths/number of test subjects (deaths), % weight change (wt).

[3] = test system: MX1 breast cancer tumors implanted subcutaneously; assay: Tumor growth reduction in mice models (Table 5), breast; assay type: in vivo; settings: MXI-breast, positive control 125 mg/kg
P388 = assay: P-388 model for leukemia, T/C; assay type: in vivo, mice
Text: In the P-388 model for leukemia there was a dose responsive effect and the results were good.
The NCI Measure of Success is T/C=125.

B-16 mouse melanoma = test system: B-16 mouse melanoma
Procedure: The data in Tables 1, 2 and 3 are reported in T/C which is interpreted using the following scale:
long term survivors for P388 is >30 days, for B16 it is >60 days. The NCI Measure of Success is T/C=125.
This study was performed in black mice injected i.p. with B-16 mouse melanoma which many researchers believe is the most predictive model for efficacy in humans. […] Death is the end point in this model.

lung = assay type: in vivo; settings: A549-lung, positive control 125 mg/kg
herpes = assay: In vivo herpes screening test; design: species or system mice; settings: 75 mg/kg
Procedure: The positive control was acyclovir at 75 mg/kg dose; 60% of the mice survived with a mean death date of 17.2 days.

influenza = assay: In vivo model for influenza; design: species or system mice; settings: 75 mg/kg; for 21 days
Procedure: The positive control was amantadine (75 mg/kg) with 100% of the mice surviving for 21 days. 2-(Methoxycarbonylamino)benzimidazole was not active in the same test.

colon = assay: Tumor growth reduction in mice models (Tables 5 and 6), colon; assay type: in vivo; settings: HT29-colon, positive control 4 mg/kg
[4] = given for perspective; cited from earlier work
[5] = A549 (lung), positive control 125 mg/kg
[6] = DU-145, positive control 300 mg/kg, 1 dose
[7] = HT29 (colon), positive control 300 mg/kg, 1 dose
[8] = MCF-7L (breast), positive control 300 mg/kg, 1 dose
[9] = MX1 xenograft, positive control 300 mg/kg, 1 dose
[10] = positive control, 300 mg/kg on dose
[11] = SK-MES, positive control 2 mg/kg, 5 doses

## COc1ccc2nc(C(O)C(O)c3nc4ccc(OC)cc4[nH]3)[nH]c2c1 (stereo not shown) [A36683, reference compound]
rhinovirus
  therapeutic index (TI), ratio of toxic dose to efficacious dose: 1000-3200

## Cc1cn([C@H]2C[C@H](N=[N+]=[N-])[C@@H](CO)O2)c(=O)[nH]c1=O [AZT, reference compound]
HIV
  inhibition of viral replication: 98%
[1]
  activity in this model: no activity

## COc1cccc2c1C(=O)c1c(O)c3c(c(O)c1C2=O)C[C@@](O)(C(=O)CO)C[C@@H]3O[C@H]1C[C@H](N)[C@H](O)[C@H](C)O1 [Adriamycin, reference compound]
HT29 colon tumor cells; HT29, first column
  EC-50 Result: 0.03 ppm
HT29 colon tumor cells; HT29, second column
  EC-50 Result: 0.006 ppm
MX1 breast cells; MX1, first column
  EC-50 Result: 0.02 ppm
MX1 breast cells; MX1, second column
  EC-50 Result: 0.001 ppm
A549 lung tumor cells; A549, first column
  EC-50 Result: 0.03 ppm
A549 lung tumor cells; A549, second column
  EC-50 Result: 0.009 ppm

## O=P1(N(CCCl)CCCl)NCCCO1 (stereo not shown) [Cytoxan, reference compound]
[2]; [5]
  % weight change (wt): −1%
  toxic deaths/number of test subjects (deaths): 0/10
  tumor growth suppression (tg supp.): 69%
[2]; [6]
  % weight change (wt): +6%
  toxic deaths/number of test subjects (deaths): 0/10
  tumor growth suppression (tg supp.): 0%
[2]; [7]
  % weight change (wt): +10%
  toxic deaths/number of test subjects (deaths): 0/10
  tumor growth suppression (tg supp.): 45%
[2]; [8]
  % weight change (wt): −15%
  toxic deaths/number of test subjects (deaths): 3/10
  tumor growth suppression (tg supp.): 100%
[2]; [9]
  % weight change (wt): −7%
  toxic deaths/number of test subjects (deaths): 0/10
  tumor growth suppression (tg supp.): complete
[3]
  Tumor Growth Decrease: regression
P388; P388-luekemia, positive control (125)
  increased life span, Positive Control: curative
P388; [10]
  T/C: 191
  weight change: −8.43%
B-16 mouse melanoma; [10]
  T/C: 191
  weight change: −8.43%
lung
  Tumor Growth Decrease: 69%

## CCC1=C[C@@H]2CN(C1)Cc1c([nH]c3ccccc13)[C@@](C(=O)OC)(c1cc3c(cc1OC)N(C)[C@H]1[C@@](O)(C(=O)OC)[C@H](OC(C)=O)[C@]4(CC)C=CCN5CC[C@]31[C@@H]54)C2 [Navelbine]
[2]; [11]
  % weight change (wt): −5%
  toxic deaths/number of test subjects (deaths): 1/10
  tumor growth suppression (tg supp.): 26%
B-16 mouse melanoma; B16 melanoma, positive control (2)
  increased life span, Positive Control: 265%

## Nc1nc2c(ncn2COCCO)c(=O)[nH]1 [acyclovir, reference compound]
herpes
  mean death date: 17.2 days
  mice survived: 60%

## NC12CC3CC(CC(C3)C1)C2 [amantadine, reference compound]
influenza
  mice surviving: 100%

## CCCCNC(=O)n1c(NC(=O)OC)nc2ccccc21 [benomyl]
HT29 colon tumor cells; HT29, first column
  EC-50 Result: 0.742 ppm
HT29 colon tumor cells; HT29, second column
  EC-50 Result: 0.747 ppm
MX1 breast cells; MX1, first column
  EC-50 Result: 1.42 ppm
MX1 breast cells; MX1, second column
  EC-50 Result: 2.42 ppm
A549 lung tumor cells; A549, first column
  EC-50 Result: 0.980 ppm
A549 lung tumor cells; A549, second column
  EC-50 Result: 1.02 ppm

## N.N.[Cl][Pt][Cl] [cis-plat]
colon
  Tumor Growth Decrease: 59%

## [Cl-].[Na+] [table salt]
[4]
  LD50: 3750 mg/kg
